Laboratory results reported in patent US20240166639A1, “POTENT AND SELECTIVE COMPOUNDS AS SEROTONIN 1B RECEPTOR MODULATORS” (LEUKOS BIOTECH, S.L., priority 2020, published 2024).
pEC50, pKi: −log10 of the molar value. Counter-ions that a name gives are not always drawn.

Tests used:
[1] = tested on: human acute myeloid leukemia (AML) cells; conditions: every 2 days for 14 days, apomorphine 5 mg/kg, methiothepin 0.1 mg/kg, cited from earlier work; for AML burden in bone marrow (BM): vs vehicle
human 5-HT1B receptor = human 5-HT1B receptor (Homo sapiens (Human), UniProt P28222); assay: Competition binding in human 5-HT1B receptor; conditions: [3H]-GR125743, Hela-5-HT1B membranes; read-out: h5-HT1B Ki
Protocol: Serotonin 5-HT1B receptor competition binding experiments were carried out in a polypropylene 96-well plate. In each well was incubated 5 μg of membranes from Hela-5-HT1B cell line prepared in the laboratory (Lot: A001/14-11-2011, protein concentration=3179 μg/ml), 1.5 nM [^3H]-GR125743 ([…], 0.1 mCi/ml, Perkin Elmer NET1172100UC) and compounds studied and standard. Non-specific binding was determined in the presence of GR55562 10 μM (TOCRIS 1054). The reaction mixture (Vt: 250 μl/well) was incubated at 25° C. for 90 min, 200 μL was transfered to GF/C 96-well plate (Millipore, Madrid, Spain) pretreated with 0.5% of PEI and treated with binding buffer (Tris-HCl 50 mM, EDTA 1 mM, MgCl2 10 mM, pH=7.4), after was filtered and washed four times with 250 μl wash buffer (Tris-HCl 50 mM, pH=7.4), before measuring in a microplate beta scintillation counter (Microbeta Trilux, PerkinElmer, Madrid, Spain). […] From the IC50 the Ki is calculated according to the following formula: […]
(§1) Being: • IC50: inhibitory concentration, • D: real concentration of radioligand and • Kd: dissociation constant (affinity of radioligand to the receptor).

human 5-HT2A receptor = human 5-HT2A receptor (Homo sapiens (Human), UniProt P28223); assay: Competition binding in human 5-HT2A receptor; conditions: [3H]-Ketanserin, CHO-5-HT2A membranes; read-out: h5-HT2A Ki
Protocol: Serotonin 5-HT2A receptor competition binding experiments were carried out in a polypropilene 96-well plate. In each well was incubated 80 μg of membranes from CHO-5-HT2A cell line prepared in the laboratory (protein concentration=4337 μg/ml), 1 nM [^3H]-Ketanserin (47.3 Ci/mmol, 1 mCi/ml, Perkin Elmer NET791250UC) and compounds studied and standard. Non-specific binding was determined in the presence of Methysergide 1 μM (Sigma M137). The reaction mixture (Vt: 250 μl/well) was incubated at 37° C. for 30 min, 200 μL was transfered to GF/B 96-well plate (Millipore, Madrid, Spain) pretreated with 0.5% of PEI and treated with binding buffer (Tris-HCl 50 mM, pH=7.4), after was filtered and washed six times with 250 μl wash buffer (Tris-HCl 50 mM, pH=6.6), before measuring in a microplate beta scintillation counter (Microbeta Trilux, PerkinElmer, Madrid, Spain).
The raw radioactivity data is adjusted to a logistic regression of 4 parameters using GraphPad Prism software, from the specific junction the value of IC50 is obtained. From the IC50 the Ki is calculated according to the following formula: […]
as §1

MonoMac-1 = assay: Cell viability assay, AML cell line MonoMac-1; assay type: cell-based; conditions: 48 h treatment, live cells by flow cytometry
Protocol: (§2) 0.15×10^6 AML cell lines (HL-60 or MonoMac-1) per mL were cultured in completed RPMI medium, supplemented with 10% Fetal bovine serum (FBS). Compounds were added to the medium at the concentration indicated (0.1, 1 and 10 μM), while controls were treated with equivalent concentration of vehicle (DMSO). Primary validation screenings were analyzed after 72 h of treatment, EC50 was determined upon 48 h treatments. Cells were stained with the live-dead discrimination dye 7-aminoactinomycin D (7-AAD) and Hoechst 33342 and acquired in a flow cytometer, with a volumetric counting. Live cells were discriminated based on a discrete FSC-SSC profile, 7-AAD negativity and dim positivity to Hoechst 33342. EC50 was calculated with the Prism GraphPad software.

HL-60 = assay: Cell viability assay, AML cell line HL-60; assay type: cell-based; conditions: 48 h treatment, live cells by flow cytometry
Protocol: as §2

[2] = Healthy blood cells viability assay; assay type: cell-based; conditions: 48 h treatment, healthy peripheral blood mononuclear cells; read-out: EC50 (uM), cytotoxic capacity on healthy cells
Protocol: (§3) 0.5×10^6 peripheral blood-mononuclear blood cells per mL were cultured in completed RPM medium, supplemented with 10% FBS. Compounds were added to the medium at 0.5/1/5/10/50 μM, while controls were treated with equivalent concentration of vehicle (DMSO). Upon 48 h treatment, cells were stained with the live-dead discrimination dye 7-AAD and Hoechst 33342, the pan-hernatopoietic surface marker CD45, and acquired in a flow cytometer, with a volumetric counting. Live cells were discriminated based on a discrete FSC-SSC profile, 7-AAD negativity, dim positivity to Hoechst 33342 and CD45 positivity. EC50 was calculated with the Prism GraphPad software.

[3] = tested on: peripheral blood-mononuclear blood cells; assay: Healthy blood cells viability assay; assay type: cell-based; conditions: 48 h treatment, read-out: EC50 (uM), cytotoxic capacity on healthy cells
Protocol: as §3

Chain of human 5-HT2A receptor (P28223 whole entry): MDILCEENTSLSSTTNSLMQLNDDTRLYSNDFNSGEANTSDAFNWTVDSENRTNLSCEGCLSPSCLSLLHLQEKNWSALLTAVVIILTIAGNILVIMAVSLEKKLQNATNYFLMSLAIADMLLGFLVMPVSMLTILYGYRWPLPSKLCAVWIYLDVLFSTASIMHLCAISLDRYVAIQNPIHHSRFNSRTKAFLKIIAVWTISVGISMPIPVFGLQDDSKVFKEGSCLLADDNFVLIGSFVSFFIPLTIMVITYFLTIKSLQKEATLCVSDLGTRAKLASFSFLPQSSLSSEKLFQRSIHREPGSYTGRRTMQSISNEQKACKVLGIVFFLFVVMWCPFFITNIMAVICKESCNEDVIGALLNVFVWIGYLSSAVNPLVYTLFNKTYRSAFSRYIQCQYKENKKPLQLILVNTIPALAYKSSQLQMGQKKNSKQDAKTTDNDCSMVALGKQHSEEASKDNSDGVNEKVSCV
Chain of human 5-HT1B receptor (P28222 whole entry): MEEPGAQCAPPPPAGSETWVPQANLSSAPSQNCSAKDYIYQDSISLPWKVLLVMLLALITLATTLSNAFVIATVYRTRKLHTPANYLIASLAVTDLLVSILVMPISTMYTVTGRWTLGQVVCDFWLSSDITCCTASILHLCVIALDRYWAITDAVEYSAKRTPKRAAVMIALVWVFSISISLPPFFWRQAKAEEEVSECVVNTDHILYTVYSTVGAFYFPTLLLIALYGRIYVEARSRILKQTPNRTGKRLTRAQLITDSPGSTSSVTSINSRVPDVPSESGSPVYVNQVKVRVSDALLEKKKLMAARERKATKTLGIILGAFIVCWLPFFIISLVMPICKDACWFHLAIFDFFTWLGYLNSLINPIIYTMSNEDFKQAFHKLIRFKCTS

pKi (human 5-HT1B receptor)	pKi (human 5-HT2A receptor)	pEC50 (HL-60; Homo sapiens, HL-60)	SMILES	clonogenic capacity of engrafted AML cells [1]	AML burden in bone marrow (BM) [1]	pEC50 (MonoMac-1; Mono-Mac-1)	EC50 at 48 h [2] [µM]	pEC50 (MonoMac-1)	pEC50 (HL-60)	EC50 [3] [µM]
5.76	8.16	5.31	CN1CCc2cccc3c2[C@H]1Cc1ccc(O)c(O)c1-3 [Apomorphine, reference compound]	impaired	significant reduction	4.93				
8.01	5.60	6.19	Cc1nc(-c2ccc(-c3ccc(C(=O)Nc4ccc(C#N)c(OCCN(C)C)c4)cn3)c(C3CC3)c2)no1 [Example 7, N-(4-cyano-3-(2-(dimethylamino)ethoxy)phenyl)-6-(2-cyclopropyl-4-(5-methyl-1,2,4-oxadiazol-3-yl)phenyl)nicotinamide]			6.10	50			
8.20	5.46	5.44	Cc1nc(-c2ccc(-c3ccc(C(=O)Nc4cc(OCCN(C)C)c(C#N)cn4)cc3)c(C3CC3)c2)no1 [Example 21, N-(5-cyano-4-(2-(dimethylamino)ethoxy)pyridin-2-yl)-2′-cyclopropyl-4′-(5-methyl-1,2,4-oxadiazol-3-yl)-[1,1′-biphenyl]-4-carboxamide]			5.48	> 50			
8.10	5.52	6.01	Cc1nc(-c2ccc(-c3ccc(C(=O)Nc4cc(OCCN(C)C)c(C#N)cn4)cc3)c(Cl)c2)no1 [Example 23, 2′-chloro-N-(5-cyano-4-(2-(dimethylamino)ethoxy)pyridin-2-yl)-4′-(5-methyl-1,2,4-oxadiazol-3-yl)-[1,1′-biphenyl]-4-carboxamide]			6.27	> 50			
		5.23	Cc1nc(-c2ccc(-c3ccc(C(=O)Nc4ncc(C#N)c(OCCN(C)C)n4)cc3)c(C3CC3)c2)no1 [Example 36, N-(5-cyano-4-(2-(dimethylamino)ethoxy)pyrimidin-2-yl)-2′-cyclopropyl-4′-(5-methyl-1,2,4-oxadiazol-3-yl)-[1,1′-biphenyl]-4-carboxamide]			5.13	25			
7.78	< 5.00		Cc1nc(-c2ccc(-c3ccc(C(=O)Nc4ncc(C#N)c(OCCN(C)C)n4)cc3)c(Cl)c2)no1 [Example 38, 2′-chloro-N-(5-cyano-4-(2-(dimethylamino)ethoxy)pyrimidin-2-yl)-4′-(5-methyl-1,2,4-oxadiazol-3-yl)-[1,1′-biphenyl]-4-carboxamide]				50			
		5.46	Cc1nc(-c2ccc(-c3ccc(C(=O)Nc4cc(OCCN(C)C)c(Br)cn4)cn3)c(C3CC3)c2)no1 [Example 39, N-(5-bromo-4-(2-(dimethylamino)ethoxy)pyridin-2-yl)-6-(2-cyclopropyl-4-(5-methyl-1,2,4-oxadiazol-3-yl)phenyl)nicotinamide]			5.59	50			
7.59	< 5.00	5.75	Cc1nc(-c2ccc(-c3ccc(C(=O)Nc4cc(OCCN(C)C)c(C#N)cn4)cn3)c(C3CC3)c2)no1 [Example 45, N-(5-cyano-4-(2-(dimethylamino)ethoxy)pyridin-2-yl)-6-(2-cyclopropyl-4-(5-methyl-1,2,4-oxadiazol-3-yl)phenyl)nicotinamide]			5.94	> 50			
8.01	< 5.00	5.18	Cc1nc(-c2ccc(-c3ccc(C(=O)Nc4cc(OCCN(C)C)c(C#N)cn4)cn3)c(Cl)c2)no1 [Example 47, 6-(2-chloro-4-(5-methyl-1,2,4-oxadiazol-3-yl)phenyl)-N-(5-cyano-4-(2 (dimethylamino)ethoxy)pyridin-2-yl)nicotinamide]			5.39	25			
6.90	< 5.00		COc1cc(-c2noc(C)n2)ccc1-c1ccc(C(=O)Nc2cc(OCCN(C)C)c(C#N)cn2)cn1 [Example 49, N-(5-cyano-4-(2-(dimethyiamino)ethoxy)pyridin-2-yl)-6-(2-methoxy-4-(5-methyl-1,2,4-oxadiazol-3-yl)phenyl)nicotinamide]					5.38	5.94	
			CSc1ccc2c(c1)C(N1CCN(C)CC1)Cc1ccccc1S2 (stereo not drawn) [methiothepin]	impaired	significant reduction					

SMILES	pKi (human 5-HT1B receptor)	pKi (human 5-HT2A receptor)	pEC50 (HL-60; Homo sapiens, HL-60)	clonogenic capacity of engrafted AML cells [1]	AML burden in bone marrow (BM) [1]	pEC50 (MonoMac-1; Mono-Mac-1)	EC50 at 48 h [2] [µM]	pEC50 (MonoMac-1)	pEC50 (HL-60)	EC50 [3] [µM]
COc1cc(-c2noc(C)n2)ccc1-c1ccc(C(=O)Nc2cc(OCCN(C)C)c(Br)cn2)cn1 [Example 43, N-(5-bromo-4-(2-(dimethylamino)ethoxy)pyridin-2-yl)-6-(2-methoxy-4-(5-methyl-1,2,4-oxadiazol-3-yl)phenyl)nicotinamide]	8.82	5.70	5.60			5.72				
Cc1nc(-c2ccc(-c3ccc(C(=O)Nc4ccc(C#N)c(OCCN(C)C)n4)cn3)c(C3CC3)c2)no1 [Example 54, N-(5-cyano-6-(2-(dimethylamino)ethoxy)pyridin-2-yl)-6-(2-cyclopropyl-4-(5-methyl-1,2,4-oxadiazol-3-yl)phenyl)nicotinamide]	7.32	< 5.00	5.97			5.98				
Cc1nc(-c2ccc(-c3ccc(NC(=O)c4ccc(Br)c(OCCN(C)C)c4)cn3)c(F)c2)no1 [Example 65, 4-bromo-3-(2-(dimethylamino)ethoxy)-N-(6-(2-fluoro-4-(5-methyl-1,2,4-oxadiazol-3-yl)phenyl)pyridin-3-yl)benzamide]	9.30	6.00	6.03			5.88				
COc1ccc(NC(=O)c2ccc(-c3ccc(-c4noc(C)n4)cc3C)cc2)cc1OCCN(C)C [SB41, N-[3-[3-(Dimethylamino)ethoxy]-4-methoxyphenyl]-2′-methyl-4′-(5-methyl-1,2,4-oxadiazol-3-yl)-[1,1′-biphenyl]-4-carboxamide hydrochloride, reference compound]	9.22	6.84						5.61	5.14	12.5
